Reference: ChEMBL document CHEMBL6134871, “PCSK9 Targeted Autophagosome-Tethering Compounds: Design, Synthesis, and Antiatherosclerosis Evaluation” (J Med Chem, 2025)
The source made the active and inactive calls. The rule behind the calls is not given here.

Experiments:
Huh-7 [1] = test: Induction of autophagy in human Huh-7 cells assessed as colocalization of lysosome with LC3B protein at 100 nM incubated for 3 hrs by DAPI staining based fluorescence based analysis; assay type: functional, cell-based
Huh-7 [2] = test: Induction of autophagy in human Huh-7 cells assessed as colocalization of lysosome with LAMP1 protein at 100 nM incubated for 3 hrs by DAPI staining based fluorescence based analysis; assay type: functional, cell-based
[3] = AUC (0 to t) in C57 mouse at 5 mg/kg, ip; assay type: ADME, organism-based; details: in vivo
[4] = AUC (0 to infinity) in C57 mouse at 5 mg/kg, ip; assay type: ADME, organism-based; details: in vivo
[5] = Cmax in C57 mouse at 5 mg/kg, ip; assay type: ADME, organism-based; details: in vivo
[6] = Cmax in C57 mouse at 5 mg/kg, po; assay type: ADME, organism-based; details: in vivo
[7] = AUC (0 to t) in C57 mouse at 5 mg/kg, iv; assay type: ADME, organism-based; details: in vivo
[8] = Tmax in C57 mouse at 5 mg/kg, po; assay type: ADME, organism-based; details: in vivo
[9] = Bioavailability in C57 mouse at 5 mg/kg, ip; assay type: ADME, organism-based; details: in vivo
[10] = AUC (0 to infinity) in C57 mouse at 5 mg/kg, iv; assay type: ADME, organism-based; details: in vivo
[11] = Tmax in C57 mouse at 5 mg/kg, ip; assay type: ADME, organism-based; details: in vivo
[12] = AUC (0 to t) in C57 mouse at 5 mg/kg, po; assay type: ADME, organism-based; details: in vivo
[13] = AUC (0 to infinity) in C57 mouse at 5 mg/kg, po; assay type: ADME, organism-based; details: in vivo
[14] = Oral bioavailability in C57 mouse at 5 mg/kg; assay type: ADME, organism-based; details: in vivo
HUVEC [15] = test: Anti-atherosclerosis activity in human HUVEC cells transfected with PCSK9 siRNA assessed as inhibition of LPS-induced ICAM-1 mRNA expression at 100 nM preincubated with compound for 24 hrs followed by LPS induction and measured after 24 hrs by qPCR analysis; assay type: functional, cell-based; details: time 48.0 hrs
HUVEC [16] = test: Anti-atherosclerosis activity in human HUVEC cells transfected with PCSK9 siRNA assessed as increase in Bcl-2 level at 100 nM incubated for 24 hrs by Western blot analysis; assay type: functional, cell-based
HepG2 = test: Antiproliferative activity human HepG2 cells assessed as inhibition of cell growth incubated for 24 hrs by MTT assay; assay type: functional, cell-based
HUVEC [17] = test: Antiproliferative activity human HUVEC cells assessed as inhibition of cell growth incubated for 24 hrs by MTT assay; assay type: toxicity, cell-based
Mus musculus [18] = test: Anti-atherosclerosis activity in mouse assessed as reduction in PCSK9 level in liver at 15 mg/kg, po measured for 3 weeks by Western blot analysis; assay type: functional, organism-based
Huh-7 [19] = test: Induction of LDL uptake in human Huh-7 cells at 100 nM incubated for 24 hrs by DiI-LDL DMEM staining based fluorescence microplate reader assay; assay type: functional, cell-based
HUVEC [20] = test: Anti-atherosclerosis activity in human HUVEC cells assessed as reduction in Bax level at 100 nM incubated for 24 hrs by Western blot analysis; assay type: functional, cell-based
THP-1 [21] = test: Anti-atherosclerosis activity in human THP-1 cells transfected with PCSK9 siRNA assessed as reduction in NLRP3 level at 100 nM preincubated with compound for 24 hrs followed by ox-LDL induction and measured after 24 hrs by Western blot analysis; assay type: functional, cell-based; details: time 48.0 hrs
Mus musculus [22] = test: Anti-atherosclerosis activity in mouse assessed as […] in LDL level in liver at 15 mg/kg, po measured for 3 weeks; assay type: functional, organism-based
Huh-7 [23] = test: Induction of autophagy in human Huh-7 cells assessed as reduction in PCSK9 level at 37 uM incubated for 24 hrs in presence of chloroquine by Western blot analysis; assay type: functional, cell-based
HUVEC [24] = test: Anti-atherosclerosis activity in human HUVEC cells transfected with PCSK9 siRNA assessed as inhibition of LPS-induced VCAM-1 mRNA expression at 100 nM preincubated with compound for 24 hrs followed by LPS induction and measured after 24 hrs by qPCR analysis; assay type: functional, cell-based; details: time 48.0 hrs
HUVEC [25] = test: Anti-atherosclerosis activity in human HUVEC cells transfected with PCSK9 siRNA assessed as inhibition of ox-LDL-induced caspase 3 expression at 100 nM preincubated with compound for 24 hrs followed by ox-LDL induction and measured after 24 hrs by Western blot analysis; assay type: functional, cell-based; details: time 48.0 hrs
Huh-7 [26] = test: Induction of autophagy in human Huh-7 cells assessed as reduction in PCSK9 level at 100 nM incubated for 24 hrs in presence of carfilzomib by Western blot analysis; assay type: functional, cell-based
THP-1 [27] = test: Anti-atherosclerosis activity in human THP-1 cells transfected with PCSK9 siRNA assessed as reduction in CD36 level at 100 nM preincubated with compound for 24 hrs followed by ox-LDL induction and measured after 24 hrs by Western blot analysis; assay type: functional, cell-based; details: time 48.0 hrs
Mus musculus [28] = test: Anti-atherosclerosis activity in mouse assessed as reduction in TC level in plasma at 15 mg/kg, po measured for 3 weeks; assay type: functional, organism-based
Mus musculus [29] = test: Anti-atherosclerosis activity in mouse assessed as reduction in NF-kappab level in liver at 15 mg/kg, po measured for 3 weeks by Western blot analysis; assay type: functional, organism-based
MOVAS [30] = test: Downregulation of PCSK9 expression in mouse MOVAS cells transfected with PCSK9 siRNA incubated for 24 hrs Western blot analysis; assay type: functional, cell-based
THP-1 [31] = test: Antiproliferative activity human THP-1 cells assessed as inhibition of cell growth incubated for 24 hrs by MTT assay; assay type: functional, cell-based
Mus musculus [32] = test: Anti-atherosclerosis activity in mouse assessed as reduction in NLRP3 level in liver at 15 mg/kg, po measured for 3 weeks by Western blot analysis; assay type: functional, organism-based
Mus musculus [33] = test: Anti-atherosclerosis activity in mouse assessed as reduction in LDLR level in liver at 15 mg/kg, po measured for 3 weeks by Western blot analysis; assay type: functional, organism-based
MOVAS [34] = test: Antiproliferative activity mouse MOVAS cells assessed as inhibition of cell growth incubated for 24 hrs by MTT assay; assay type: functional, cell-based
Huh-7 [35] = test: Induction of autophagy in human Huh-7 cells assessed as reduction in PCSK9 level at 100 nM incubated for 24 hrs in presence of EBSS by Western blot analysis; assay type: functional, cell-based
THP-1 [36] = test: Anti-atherosclerosis activity in human THP-1 cells transfected with PCSK9 siRNA assessed as reduction in ox-LDL-induced amount of red lipid droplets at 100 nM preincubated with compound for 24 hrs followed by ox-LDL induction and measured after 24 hrs by oil red staining based analysis; assay type: functional, cell-based; details: time 48.0 hrs
THP-1 [37] = test: Anti-atherosclerosis activity in human THP-1 cells transfected with PCSK9 siRNA assessed as reduction in NF-kappaB level at 100 nM preincubated with compound for 24 hrs followed by ox-LDL induction and measured after 24 hrs by Western blot analysis; assay type: functional, cell-based; details: time 48.0 hrs
Huh-7 [38] = test: Antiproliferative activity human Huh-7 cells assessed as inhibition of cell growth incubated for 24 hrs by MTT assay; assay type: functional, cell-based
HUVEC [39] = test: Anti-atherosclerosis activity in human HUVEC cells transfected with PCSK9 siRNA assessed as inhibition of ox-LDL-induced caspase 9 expression at 100 nM preincubated with compound for 24 hrs followed by ox-LDL induction and measured after 24 hrs by Western blot analysis; assay type: functional, cell-based; details: time 48.0 hrs
[40] = Toxicity in mouse assessed as kidney damage at 5 to 15 mg/kg, po; assay type: organism-based; details: in vivo, dose 5-15 mg/kg
[41] = Toxicity in mouse assessed as heart damage at 5 to 15 mg/kg, po; assay type: organism-based; details: in vivo, dose 5-15 mg/kg
Mus musculus [42] = test: Anti-atherosclerosis activity in mouse assessed as reduction in plaque area in aorta at 15 mg/kg, po measured for 3 weeks; assay type: functional, organism-based
[43] = Toxicity in mouse assessed as change in body weight at 5 to 15 mg/kg, po; assay type: organism-based; details: in vivo, dose 5-15 mg/kg

SMILES: COc1cc2c(cc1O)C(C)(CC(=O)Nc1nccs1)NCC2 (stereo not given)
- Activity (Huh-7 [1]): inactive
- Activity (Huh-7 [2]): inactive

SMILES: O=C1Nc2ccc(I)cc2/C1=C/c1cc(Br)c(O)c(Br)c1
- Activity (Huh-7 [1]): inactive
- Activity (Huh-7 [2]): inactive

SMILES: COc1cc2c(cc1OCCCCN1C(=O)/C(=C\c3cc(Br)c(O)c(OC)c3)c3cc(Br)ccc31)C(C)(CC(=O)Nc1nccs1)NCC2 (stereo not given)
- AUC(0-t) [3]: 951 ng·h/mL
- AUC(0-inf) [4]: 987 ng·h/mL
- Cmax [5]: 423 ng/mL
- Cmax [6]: 55 ng/mL
- AUC(0-t) [7]: 9810 ng·h/mL
- Tmax [8]: 60 min
- bioavailability [9]: 9.69%
- AUC(0-inf) ([10]; C57, mouse): 10600 ng·h/mL
- Tmax [11]: 60 min
- AUC(0-t) [12]: 101 ng·h/mL
- AUC(0-inf) ([13]; C57, mouse): 119 ng·h/mL
- bioavailability ([14]; C57, mouse): 1.02%

SMILES: COc1cc2c(cc1OCCOCCOCCOCCN1C(=O)/C(=C\c3cc(Br)c(O)c(Br)c3)c3cc(I)ccc31)C(C)(CC(=O)Nc1nccs1)NCC2 (stereo not given)
- Activity (HUVEC [15]): Active
- Activity (HUVEC [16]): Active
- Activity (HepG2): Active
- AUC(0-t) [3]: 6070 ng·h/mL
- Activity (HUVEC [17]): Non-toxic
- Activity (Mus musculus [18]): Active
- Activity (Huh-7 [19]): Active
- AUC(0-inf) [4]: 6350 ng·h/mL
- Activity (HUVEC [20]): Active
- Cmax [5]: 1860 ng/mL
- Activity (THP-1 [21]): Active
- Activity (Mus musculus [22]): Active
- Activity (Huh-7 [23]): inactive
- Activity (HUVEC [24]): Active
- Activity (HUVEC [25]): Active
- Activity (Huh-7 [26]): Active
- Activity (THP-1 [27]): Active
- Activity (Mus musculus [28]): Active
- Cmax [6]: 57.8 ng/mL
- Activity (Mus musculus [29]): Active
- Activity (MOVAS [30]): Active
- Activity (THP-1 [31]): Active
- Activity (Mus musculus [32]): Active
- Activity (Mus musculus [33]): Active
- AUC(0-t) [7]: 9500 ng·h/mL
- Activity (MOVAS [34]): Active
- Activity (Huh-7 [35]): Active
- Activity (THP-1 [36]): Active
- Tmax [8]: 15 min
- bioavailability [9]: 63.9%
- Activity (Huh-7 [1]): Active
- AUC ([10]; mouse, iv, 5 mg/kg): 9932 ng·h/mL
- Tmax [11]: 30 min
- Activity (THP-1 [37]): Active
- Activity (Huh-7 [38]): Active
- Activity (HUVEC [39]): Active
- Activity [40]: Non-toxic
- AUC(0-t) [12]: 59.8 ng·h/mL
- AUC ([13]; mouse, po, 5 mg/kg): 177 ng·h/mL
- Activity [41]: Non-toxic
- Activity (Mus musculus [42]): Active
- F ([14]; mouse, po, 5 mg/kg): 0.63%
- Activity [43]: Non-toxic
- Activity (Huh-7 [2]): Active
